Data from PMC5860131, “Identification of natural products as novel ligands for the human 5-HT2C receptor” (Biophysics Reports, 2018).

Assays:
[1] = target: T1, 5-HT2C receptor A222^5.46V (Homo sapiens, UniProt P28335, A222V/DEL255-298/G251D/H250E/H252N/INS299[…]/L248D/M247A/M300L/T253W); experiment: CPM thermal stability assay, 5-HT2C mutant A222V; assay type: binding
T1 construct: the N- and C-terminals were truncated by 39 and 65 residues, respectively; PreScission protease site + 10× His (C); made in house
From the text: Based on the binding poses predicted by molecular docking, single-point mutations were designed to test their impact on ligand binding. Mutations of several residues include the highly conserved Asp134^3.32, which is known to cause 5-HT1B or 5-HT2B receptors to abolish the monoamine ligand binding as reported in the literature (Wang et al. [2013]). In this study, residues forming hydrophobic interactions with the substitution groups on the aporphine scaffold of (–)-crebanine (1) were selected for mutation as well and they are Thr139^3.37, Gly218^5.42, Ala222^5.46, and Leu209^ECL2. Effects of those mutations were tested with the CPM assay and the affinity MS assay (Table 2). In the affinity MS experiment, relative ligand-binding capacity (represented by binding %) to different mutants and the wild-type receptor was compared. […]
Purified 5-HT2C receptor protein was thoroughly mixed with CPM fluorescent dyes. […] Fluorescence signals, wavelength 387 nm (excitation) and 463 nm (emission), were monitored (Alexandrov et al. [2008]). […] The thermal denaturation of the samples was evaluated using the scatter plot curve, where the horizontal coordinates represented temperature and the vertical coordinates indicated normalized fluorescence intensity recorded for a particular temperature. […]

5-HT2C receptor = target: T2, 5-HT2C receptor (Homo sapiens, UniProt P28335); experiment: Ca2+ mobilization assay (Fluo-4, FLIPR), HEK 293T cells stably transfected with 5-HT2C; assay type: cell-based
T2 construct: expressed in transfected cells; host or cells: HEK 293T, stably transfected
T2 sequence (P28335 33-458): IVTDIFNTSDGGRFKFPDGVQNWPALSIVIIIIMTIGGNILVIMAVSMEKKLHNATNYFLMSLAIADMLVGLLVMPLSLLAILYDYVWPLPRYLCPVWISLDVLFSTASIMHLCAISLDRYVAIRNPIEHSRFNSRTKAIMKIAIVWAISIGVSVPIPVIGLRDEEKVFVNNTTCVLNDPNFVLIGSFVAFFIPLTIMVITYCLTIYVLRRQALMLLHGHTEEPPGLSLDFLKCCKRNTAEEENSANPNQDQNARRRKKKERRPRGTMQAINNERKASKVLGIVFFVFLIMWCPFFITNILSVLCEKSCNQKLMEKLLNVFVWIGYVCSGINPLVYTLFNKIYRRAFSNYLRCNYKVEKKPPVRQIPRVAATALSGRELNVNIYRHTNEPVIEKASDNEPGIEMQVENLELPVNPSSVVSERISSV
From the text: (§1) The 5-HT2C receptor mainly couples to Gαq proteins. The activated 5-HT2C receptor transmits the signals from the extracellular to the intercellular side using DAG/IP3 (diacyl glycerol/inositol 1,4,5-trisphosphate) as its second massagers (Hannon and Hoyer [2008]). IP3 stimulates the endoplasmic reticulum to release calcium ions into the cytoplasm, which causes the increase of calcium concentration in cytosol. Therefore, calcium mobilization assay is commonly applied to understand how unknown small molecule ligands of 5-HT2C receptor modulate cellular signal transductions. In this case, Fluo-4 Direct dye was used as a fluorescence indicator to detect calcium flux in G protein-coupled receptor expressed cells. The fold of maximum response over average of basal reading is plotted against compound concentration to determine the potency of the compounds (Fig. 3). […]. HEK 293T cells stably transfected with 5-HT2A/2B/2C receptor were seeded in 384-well plates at a density of 15,000 cells/well in DMEM containing 1% dialyzed FBS 8 h before the calcium flux assay. After removing medium, cells were then incubated (20 μl/well) for 1 h at 37 °C with Fluo-4 Direct dye (Invitrogen) reconstituted in FLIPR buffer (1× HBSS, 2.5 mmol/L probenecid, and 20 mmol/L HEPES, pH 7.4). After the dye loaded, cells were placed in a FLIPR^TETRA fluorescence imaging plate reader (Molecular Devices); drug dilutions, prepared at 3× final concentration in FLIPR buffer and aliquotted into 384-well plates, were also added to the FLIPR^TETRA. The fluidics module and plate reader of the FLIPR^TETRA were programmed to read baseline fluorescence for 10 s (1 read/s), then to add 10 μl of drug/well and to read for 6 min (1 read/s). Fluorescence in each well was normalized to the average of the first 10 reads (i.e., baseline fluorescence). Then, the maximum-fold increase, which occurred within 60 s after drug addition, over baseline fluorescence elicited by vehicle or drug was determined. […]

5-HT2B receptor = target: T3, 5-HT2B receptor (Homo sapiens, UniProt P41595); experiment: Ca2+ mobilization assay (Fluo-4, FLIPR), HEK 293T cells stably transfected with 5-HT2B; assay type: cell-based
T3 construct: expressed in transfected cells; host or cells: HEK 293T, stably transfected
From the text: as §1, with “HEK 293T cells stably transfected with 5-HT2A/2B/2C receptor were seeded in 384-well plates at a density of 15,000 cells/well in DMEM containing 1% dialyzed FBS 8 h before the calcium flux assay. After removing medium, cells were then incubated (20 μl/well) for 1 h at 37 °C with Fluo-4 Direct dye (Invitrogen) reconstituted in FLIPR buffer (1× HBSS, 2.5 mmol/L probenecid, and 20 mmol/L HEPES, pH 7.4).” left out, “read/s).” for “read/s). Fluorescence in each well was normalized to the average of the first 10 reads (i.e., baseline fluorescence). Then, the maximum-fold increase, which occurred within 60 s after drug addition, over baseline fluorescence elicited by vehicle or drug was determined.”

T1 sequence (P28335 with tags, fused parts or gaps with the stated changes): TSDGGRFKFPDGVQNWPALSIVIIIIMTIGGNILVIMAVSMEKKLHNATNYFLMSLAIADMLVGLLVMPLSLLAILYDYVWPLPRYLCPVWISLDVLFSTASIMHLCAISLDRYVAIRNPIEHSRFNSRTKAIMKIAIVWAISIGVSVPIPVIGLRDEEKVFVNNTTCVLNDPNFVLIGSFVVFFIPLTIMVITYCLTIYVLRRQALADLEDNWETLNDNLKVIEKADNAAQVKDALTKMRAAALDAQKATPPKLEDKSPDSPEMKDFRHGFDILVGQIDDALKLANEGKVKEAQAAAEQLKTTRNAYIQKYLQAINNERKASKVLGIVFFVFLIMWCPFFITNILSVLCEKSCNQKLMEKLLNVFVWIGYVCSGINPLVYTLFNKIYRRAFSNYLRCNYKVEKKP
T3 sequence (P41595 whole entry): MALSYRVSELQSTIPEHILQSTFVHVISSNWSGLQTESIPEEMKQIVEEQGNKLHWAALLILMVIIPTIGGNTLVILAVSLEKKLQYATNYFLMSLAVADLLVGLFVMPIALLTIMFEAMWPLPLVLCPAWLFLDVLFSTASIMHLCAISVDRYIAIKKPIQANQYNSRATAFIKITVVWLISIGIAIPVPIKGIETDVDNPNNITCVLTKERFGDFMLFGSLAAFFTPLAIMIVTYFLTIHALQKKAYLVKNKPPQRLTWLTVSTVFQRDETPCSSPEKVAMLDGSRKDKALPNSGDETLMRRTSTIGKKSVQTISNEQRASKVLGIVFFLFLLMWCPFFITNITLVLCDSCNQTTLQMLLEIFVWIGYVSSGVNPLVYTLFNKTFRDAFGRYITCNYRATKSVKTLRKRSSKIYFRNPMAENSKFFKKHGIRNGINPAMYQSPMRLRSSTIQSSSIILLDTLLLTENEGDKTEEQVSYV

With `COc1ccc2c(c1OC)C[C@@H]1c3c(cc4c(c3-2)OCO4)CCN1C` [Compound 1, (–)-crebanine] the “(–)-Crebanine/CPM (Tm)” value ([1]; mutant A222^5.46V, n = 2) was 59.55 °C, the “Tm value decrease versus wild-type” value ([1]; mutation Ala222^5.46Val) was 0.38 °C and the IC50 (5-HT2C receptor) was 149 nM. It also gave an IC50 (5-HT2B receptor) of 1690 nM.
